According to patent US20230091297A1, “INHIBITORS OF HSP70 PROTEINS” (ARIZONA BOARD OF REGENTS ON BEHALF OF THE UNIVERSITY OF …, priority 2020, published 2023):
Blank lines part the entries; values can stand above or below the compound they belong to.

Columns and labels:
HSPA5 = HSPA5 (Homo sapiens, UniProt P11021); test: FP peptide binding assay, HSPA5 (HSPA5-NRLLLTG interaction); parameters: His6 (N, cleaved yes); made in house; host or cells: E. coli (Codon plus); conditions: FP, 1 μM HSP70 SBD, 10 nM fluorescent peptide; read-out: A5 IC50
[1] = test system: canonical human HSP70 isoforms; test: FP binding of fluorescent peptides to HSP70 substrate binding domains; conditions: FIG. 4A
HSPA8 [2] = target: T1, HSPA8 (Homo sapiens, UniProt P11142); test: FP peptide binding assay, HSPA8 SBD; parameters: His6 (N, cleaved yes); made in house; host or cells: E. coli (Codon plus); conditions: 1 μM HSP70 SBD, 10 nM fluorescent peptide, read-out: A8 IC50
Target sequence in this assay (P11142 394-509 limits assumed): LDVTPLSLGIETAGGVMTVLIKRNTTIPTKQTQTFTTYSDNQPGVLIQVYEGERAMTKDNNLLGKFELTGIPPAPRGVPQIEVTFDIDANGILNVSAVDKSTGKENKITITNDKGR

HSPA6 = target: T2, HSPA6 (Homo sapiens, UniProt P17066); test: FP peptide binding assay, HSPA6 SBD; conditions: 1 μM HSP70 SBD, 10 nM fluorescent peptide, read-out: A6 IC50
T2 construct: His6 (N, cleaved yes); made in house; host or cells: E. coli (Codon plus)

HSPA1A [3] = target: T3, HSPA1A (Homo sapiens, UniProt P0DMV8); test: FP peptide binding assay, HSPA1A SBD; parameters: His6 (N, cleaved yes); made in house; host or cells: E. coli (Codon plus); conditions: 1 μM HSP70 SBD, 10 nM fluorescent peptide, read-out: A1A IC50
Target sequence in this assay (P0DMV8 394-509 limits assumed): as the sequence (P11142 394-509 limits assumed) above, with T4A, I10L, V19A, T25S, T34I, K65R, T69S, S96T, V98T, E105A counted along it

HSA = target: T4, HSA (Homo sapiens, UniProt P02768); test: Serum binding assay (dansylamide and BD140 probes); assay type: in vitro ADME; conditions: 50 μM compound, 20 μM HSA
T4 construct: Each sample contained 20 μM HSA in PBS at pH 7.4; from tissue; host or cells: human serum

60 cancer cell lines = test: NCI-60 human tumor cell line screen; assay type: cell-based; conditions: fixed concentration of 10 μM (FIG. 8)
HSPA9 = target: T5, HSPA9 (Homo sapiens, UniProt P38646); test: FP peptide binding assay, HSPA9 SBD; conditions: 1 μM HSP70 SBD, 10 nM fluorescent peptide, read-out: A9 IC50
T5 construct: His6 (N, cleaved yes); made in house; host or cells: E. coli (Codon plus)
T5 sequence (P38646 442-679 limits assumed): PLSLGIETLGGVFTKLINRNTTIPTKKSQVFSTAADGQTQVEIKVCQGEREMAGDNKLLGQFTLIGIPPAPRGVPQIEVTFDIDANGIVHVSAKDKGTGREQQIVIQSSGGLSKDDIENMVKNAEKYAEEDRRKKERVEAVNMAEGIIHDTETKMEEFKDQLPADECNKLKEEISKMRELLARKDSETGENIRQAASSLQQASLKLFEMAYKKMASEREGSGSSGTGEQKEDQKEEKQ

cancer cell lines = test: ZIP synergy with CB5083, growth inhibition; assay type: cell-based; conditions: combination of CB5083 and 8 (FIG. 9A)
HSPA2 = target: T6, HSPA2 (Homo sapiens, UniProt P54652); test: FP peptide binding assay, HSPA2 SBD; conditions: 1 μM HSP70 SBD, 10 nM fluorescent peptide, read-out: A2 IC50
T6 construct: His6 (N, cleaved yes); made in house; host or cells: E. coli (Codon plus)

U251 glioblastoma cells = test: Cellular synergy, U251 growth rate (incucyte confluence); assay type: cell-based; conditions: 10 μM of 8 (FIG. 12)
[4] = target: T7, HspA5 substrate binding domain (Homo sapiens, UniProt P11021); test: 15N-HSQC NMR of HspA5 substrate binding domain; conditions: FIG. 11
T7 construct: HspA5SBD); His6-Smt3 (N, cleaved yes); made in house; host or cells: E. coli BL21-Codon+

[5] = Solubility (comparison in words); assay type: physicochemical
HSPA1A [6] = target: T3, HSPA1A; conditions: read-out: NRLLLTG affinity for HSPA1A; reported in the literature; cited from earlier work
Target sequence in this assay (P0DMV8 whole entry): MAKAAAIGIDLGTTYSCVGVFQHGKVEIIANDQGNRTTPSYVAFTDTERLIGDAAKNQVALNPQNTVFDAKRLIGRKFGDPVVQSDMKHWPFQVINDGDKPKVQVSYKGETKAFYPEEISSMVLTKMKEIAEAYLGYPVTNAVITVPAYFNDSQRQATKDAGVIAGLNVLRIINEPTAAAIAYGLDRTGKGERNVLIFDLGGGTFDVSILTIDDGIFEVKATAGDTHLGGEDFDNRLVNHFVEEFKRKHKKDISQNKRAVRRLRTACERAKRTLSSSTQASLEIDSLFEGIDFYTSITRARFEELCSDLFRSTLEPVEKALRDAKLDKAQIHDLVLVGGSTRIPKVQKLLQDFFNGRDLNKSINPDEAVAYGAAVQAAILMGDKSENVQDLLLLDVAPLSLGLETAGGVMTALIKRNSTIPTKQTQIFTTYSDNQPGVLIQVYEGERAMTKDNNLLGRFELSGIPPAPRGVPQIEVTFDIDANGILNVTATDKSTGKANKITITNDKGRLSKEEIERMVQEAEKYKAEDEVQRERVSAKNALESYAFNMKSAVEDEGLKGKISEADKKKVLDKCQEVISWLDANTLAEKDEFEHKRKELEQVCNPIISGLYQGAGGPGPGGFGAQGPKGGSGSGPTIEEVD

HSPA8 [7] = target: T1, HSPA8; conditions: read-out: NRLLLTG affinity for HSPA8; reported in the literature; cited from earlier work
Target sequence in this assay (P11142 whole entry): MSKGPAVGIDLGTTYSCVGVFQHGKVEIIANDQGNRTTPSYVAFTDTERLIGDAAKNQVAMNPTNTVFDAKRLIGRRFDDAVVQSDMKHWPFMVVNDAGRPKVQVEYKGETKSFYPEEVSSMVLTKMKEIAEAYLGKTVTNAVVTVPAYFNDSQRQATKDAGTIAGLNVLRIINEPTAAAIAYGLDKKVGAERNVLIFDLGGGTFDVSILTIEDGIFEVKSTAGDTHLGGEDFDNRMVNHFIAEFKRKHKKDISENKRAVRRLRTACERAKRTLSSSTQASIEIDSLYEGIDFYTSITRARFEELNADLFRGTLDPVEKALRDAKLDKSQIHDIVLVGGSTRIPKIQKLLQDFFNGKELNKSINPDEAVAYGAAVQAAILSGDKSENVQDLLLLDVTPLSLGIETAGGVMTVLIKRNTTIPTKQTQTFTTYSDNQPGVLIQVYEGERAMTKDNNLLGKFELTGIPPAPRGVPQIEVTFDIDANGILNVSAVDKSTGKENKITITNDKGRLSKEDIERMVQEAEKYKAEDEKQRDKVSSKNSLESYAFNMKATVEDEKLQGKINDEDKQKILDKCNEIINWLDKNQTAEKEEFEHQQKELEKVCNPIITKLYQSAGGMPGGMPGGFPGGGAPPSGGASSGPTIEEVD

Chain of HSPA5 (P11021 419-632): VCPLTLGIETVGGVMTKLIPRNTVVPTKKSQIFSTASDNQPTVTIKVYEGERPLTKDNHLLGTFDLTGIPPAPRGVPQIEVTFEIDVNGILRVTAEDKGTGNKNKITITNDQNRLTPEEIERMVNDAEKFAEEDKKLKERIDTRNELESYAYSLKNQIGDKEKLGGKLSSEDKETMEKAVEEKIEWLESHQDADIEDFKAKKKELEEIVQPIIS
T2 sequence (P17066 396-511 limits assumed): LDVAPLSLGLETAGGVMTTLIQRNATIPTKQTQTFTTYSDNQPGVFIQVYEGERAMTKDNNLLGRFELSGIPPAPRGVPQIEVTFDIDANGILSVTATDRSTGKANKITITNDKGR
T6 sequence (P54652 397-512 limits assumed): as the sequence (P11142 394-509 limits assumed) above, with V19P, P43S, G44S, I47V, E67D, S96T, V98A counted along it
T4 sequence (P02768 25-609): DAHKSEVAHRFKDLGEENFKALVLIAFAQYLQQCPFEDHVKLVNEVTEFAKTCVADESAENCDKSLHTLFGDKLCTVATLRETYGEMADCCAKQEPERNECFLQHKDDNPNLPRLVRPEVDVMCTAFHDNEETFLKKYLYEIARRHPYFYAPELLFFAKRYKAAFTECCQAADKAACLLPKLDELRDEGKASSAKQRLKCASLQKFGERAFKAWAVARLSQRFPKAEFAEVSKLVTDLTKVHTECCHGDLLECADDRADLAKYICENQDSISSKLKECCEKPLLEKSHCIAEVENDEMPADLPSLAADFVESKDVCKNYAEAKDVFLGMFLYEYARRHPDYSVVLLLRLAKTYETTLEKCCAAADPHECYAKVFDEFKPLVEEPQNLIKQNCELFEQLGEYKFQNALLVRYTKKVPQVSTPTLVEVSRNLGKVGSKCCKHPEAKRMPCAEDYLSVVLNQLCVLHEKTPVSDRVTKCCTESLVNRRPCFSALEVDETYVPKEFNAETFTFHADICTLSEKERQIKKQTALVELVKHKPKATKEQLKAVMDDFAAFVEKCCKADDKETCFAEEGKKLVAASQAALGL
T7 sequence (P11021 418-635): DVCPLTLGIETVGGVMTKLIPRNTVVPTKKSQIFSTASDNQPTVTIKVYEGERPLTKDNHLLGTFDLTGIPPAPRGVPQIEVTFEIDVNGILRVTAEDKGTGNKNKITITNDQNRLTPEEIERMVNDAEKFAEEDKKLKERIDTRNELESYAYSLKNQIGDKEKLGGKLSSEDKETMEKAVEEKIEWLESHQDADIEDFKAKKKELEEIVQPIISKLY

IC50 (HSPA5): > 50 µM
Compound: CC(C)[C@H](NC(=O)c1cccs1)C(=O)O [Compound 17, (thiophene-2-carbonyl)-L-valine]

Compound: P1: fluorescent peptide FAM-ALLLSAPRR that binds human HSP70 isoforms [Compound P1]
binding of fluorescent peptide to HSP70 isoforms [1]: bound with high affinity to all isoforms except HSPA1L

binding of fluorescent peptide to HSP70 isoforms [1]: only bound tightly to HSPA5 and HSPA9
Compound: FITC-NR: Fluorescent peptide (FITC-NRLLLTG) used as FP probe

IC50 (HSPA8 [2]): 43.5 µM | IC50 (HSPA6): > 50 µM | IC50 (HSPA1A [3]): > 50 µM | Serum Binding (HSA): <10% | IC50 (HSPA9): 4.3 µM | IC50 (HSPA2): 13.9 µM
Compound: CC(C)[C@H](NC(=O)c1cc2ccccc2[nH]1)C(=O)Nc1nccs1 [Compound 8]
growth inhibition in NCI-60 panel (60 cancer cell lines): did not indicate significant decrease in growth rates | ZIP synergy with p97 inhibitor CB5083 (cancer cell lines): growth inhibition was observed when both compounds are present a concentration where neither showed activity independently | growth inhibition with ER stress inducers MG132, thapsigargin, and CB5082 (U251 glioblastoma cells): inhibits growth of these cells in a synergistic manner

IC50 (HSPA5): 0.43 ± 0.09 µM | solubility (comparison) [5]: much more soluble than compound 8
Compound: CC(=O)c1ccc2[nH]c(C(=O)N[C@H](C(=O)Nc3nccs3)C(C)C)cc2c1 [Compound 24, (S)-5-acetyl-N-(3-methyl-1-oxo-1-(thiazol-2-ylamino)butan-2-yl)-1H-indole-2-carboxamide]
binding to HSPA5 SBD by HSQC [4]: binds to HSPA5 in a manner that stabilizes its structure

Compound: NRLLLTG
Kd (HSPA1A [6]): 10 µM | Kd (HSPA8 [7]): 10 µM
